{"source": "patent US9962452B2", "about": "“Soluble complexes of drug analogs and albumin” (Zhuhai Beihai Biotech Co., Ltd., priority 2013, dated 2018)"}
{"biological_target": "Human serum albumin (HSA) (Homo sapiens, UniProt P02768)", "sequence (P02768 25-609)": "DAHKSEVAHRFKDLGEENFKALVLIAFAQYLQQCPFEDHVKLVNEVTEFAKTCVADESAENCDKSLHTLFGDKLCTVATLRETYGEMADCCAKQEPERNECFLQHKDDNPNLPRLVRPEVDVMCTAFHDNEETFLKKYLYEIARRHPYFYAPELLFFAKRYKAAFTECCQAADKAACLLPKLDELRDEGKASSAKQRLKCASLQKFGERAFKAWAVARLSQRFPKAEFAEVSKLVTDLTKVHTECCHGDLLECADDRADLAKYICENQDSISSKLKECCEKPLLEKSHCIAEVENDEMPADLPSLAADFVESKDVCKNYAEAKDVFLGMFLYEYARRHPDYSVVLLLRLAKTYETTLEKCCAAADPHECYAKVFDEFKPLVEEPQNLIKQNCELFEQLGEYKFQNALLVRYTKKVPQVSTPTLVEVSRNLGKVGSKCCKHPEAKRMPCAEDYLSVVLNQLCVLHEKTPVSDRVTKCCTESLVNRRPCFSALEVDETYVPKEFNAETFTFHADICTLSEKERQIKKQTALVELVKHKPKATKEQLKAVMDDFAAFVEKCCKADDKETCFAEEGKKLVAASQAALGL", "test": "HSA-Binding Assay (equilibrium dialysis, LC-MS/MS)", "conditions": "isolated protein", "method": "Equilibrium dialysis was performed in a 24-well BD Gentest Serum Binding System (BD Biosciences, Woburn, Mass.). Human serum albumin (HSA) at 0.6 mM was prepared by dissolving in phosphate buffered saline (PBS: 4.01 mL 1 M K2HPO4+0.99 mL 1 M KH2PO4+1.37 mL 5 M NaCl+43.63 mL water). After washing and soaking the 24-well BD Gentest Serum Binding System with water, 30% ethanol, and PBS, 750 μL of HSA and 250 μL of PBS were dispensed into each donor and receiver well, respectively. 3.75 μL of 1 mM test compound or wafarin (as control) was spiked into HSA in each donor well. The duplicate incubations were performed at 37° C. for 20 hrs.\nAfter incubation, HSA and buffer samples collected from donor and receiver wells, together with calibration standard samples, were prepared in 96-well plates as shown in Table 2.\nThe plates were then capped, vortexed, and centrifuged at 3500 rpm for 10 minutes. The supernatant was injected into LC-MS/MS. Sample analysis was performed on an LC/MS/MS system composed of Shimadzu Prominence pumps, SIL-20ACHT autosampler, and Applied Biosystems/MDS Sciex API 3200."}
{"smiles": "CCc1c2c(nc3ccc(O)cc13)-c1cc3c(c(=O)n1C2)COC(=O)[C@@]3(CC)OC(=O)CCC(=O)N[C@@H](CC(C)C)C(=O)O", "note": "[FL-043]", "fraction unbound at 20 h, 5 μM": 0.03}
{"smiles": "CCCCC(NC(=O)CCC(=O)O[C@]1(CC)C(=O)OCc2c1cc1n(c2=O)Cc2c-1nc1ccc(O)cc1c2CC)C(=O)O", "note": "(stereo partly drawn) [FL-040]", "fraction unbound at 20 h, 5 μM": 0.016}
{"smiles": "CCCCC(NC(=O)CCC(=O)Oc1ccc2nc3c(c(CC)c2c1)Cn1c-3cc2c(c1=O)COC(=O)[C@@]2(CC)OC(=O)CCC(=O)NC(CCCC)C(=O)O)C(=O)O", "note": "(stereo partly drawn) [FL-038]", "fraction unbound at 20 h, 5 μM": "< 0.168"}
{"smiles": "CCc1c2c(nc3ccc(OC(=O)CCC(=O)N[C@@H](CC(C)C)C(=O)O)cc13)-c1cc3c(c(=O)n1C2)COC(=O)[C@@]3(CC)OC(=O)CCC(=O)N[C@@H](CC(C)C)C(=O)O", "note": "[FL-041]", "fraction unbound at 20 h, 5 μM": "< 0.022"}
{"smiles": "CCCCCCCCCCCCCCCCC(NC(=O)CCC(=O)O[C@]1(CC)C(=O)OCc2c1cc1n(c2=O)Cc2c-1nc1ccc(O)cc1c2CC)C(=O)O", "note": "(stereo partly drawn) [FL-003]", "fraction unbound at 20 h, 5 μM": "< 0.001"}
{"smiles": "CCCCCCC(NC(=O)CCC(=O)Oc1ccc2nc3c(c(CC)c2c1)Cn1c-3cc2c(c1=O)COC(=O)[C@@]2(CC)OC(=O)CCC(=O)NC(CCCCCC)C(=O)O)C(=O)O", "note": "(stereo partly drawn) [FL-037]", "fraction unbound at 20 h, 5 μM": "< 0.023"}
